The source of these data is a melting point compilation (Tetko et al.; mined from patent text by program, amines drawn as free bases though some values may be those of a salt).

Each structure is given as a SMILES string. Where only a bound is given, the exact number is not on record here.

Consider `CC(C)(C)OC(=O)NC(=S)NC(=O)OC(C)(C)C`, for which the melting point fell in the range of 124 to 127 °C.
Next, `COc1ccc(OCCCCl)c(C2(SC)Sc3ccccc3N(C)C2=O)c1` (centres undefined): 135 to 137 °C; `CC1(C)Sc2nccn2C1=NOC(=O)CNSCNC(=O)ON=C1n2ccnc2SC1(C)C`: 177 to 180 °C.
Next, `C#CCN(C)C(=O)N1CC(Oc2cccc(C(F)(F)F)c2)C1`: 71 to 73 °C.
Next, `CNc1ccc(C(=O)Nc2cccc(-c3nc(NC)nc4cc(OC)c(OC)cc34)c2)cn1`: 193 to 195 °C.
As for `O=c1c2cc(F)ccc2[nH]c2c([N+](=O)[O-])ccc(Cl)c12`, the melting point lay in the range of 287 to 291 °C.
The result for `CC1(OCc2ccccc2Cl)COC(CCl)OC1` (centres undefined) reads 53 to 54 °C.
The result for `CCCN1CCC[C@@H]2c3cccc(O)c3OC[C@H]21` (relative stereo) reads 111 to 114 °C; that for `COc1cc2c(cc1OC)CN(CCCCNC(=O)c1cc(I)ccc1OCCF)CC2`, 121 to 123 °C.
The result for `c1ccc(-c2cc(-c3ccc4c(c3)OCO4)cc(OCCCCCc3nnn[nH]3)n2)cc1` reads 150 °C; that for `CNCCN1C(=O)[C@H](O)[C@H](c2ccc(OC)cc2)Sc2cc(Cl)ccc21`, 142 to 145 °C.
`CS(=O)(=O)c1ccc(-c2nc(C(F)(F)F)nc(N=[N+]=[N-])c2-c2ccc(Cl)cc2)cc1` came in with a melting point of 317 to 320 °C.
The result for `O=C(O)c1cc2ccnc(Cl)c2[nH]1` reads 210 to 214 °C; that for `O=C(OCc1ccccc1)N1CCc2c([nH]c3ccccc23)C1c1ccc2c(c1)OCO2` (centres undefined), 98 to 101 °C; that for `CCCCC12CCC3C4=C(CCC3C1CCC2=O)CC(OC)=CC4` (centres undefined), 124 to 128 °C.
Compound `CCC(CC)c1nn(-c2ccc(Cl)cn2)cc1CCCOc1c(C)cccc1CC(=O)O` returned a melting point of 106 to 107 °C.
Regarding `CCn1c(=O)cc(C2CCCCC2)c2cccnc21`, the melting point lay within 88 to 89 °C.
Compound `CC1(C)Oc2ccc([N+](=O)[O-])cc2C(C(N)=O)=C1O` registered a melting point of 189 to 191 °C.
The result for `O=C(CC(CCCc1ccccc1)C(=O)O)c1ccc(Br)cc1` (centres undefined) reads 147 °C; that for `Cn1ncc(C(=O)N2CCC2)c1C(=O)Nc1ccn2nc(-c3cccnc3)nc2c1`, 253 to 254 °C.
The compound `O=C(CCNC(=O)C(Cc1ccccc1)CP(=O)(O)O)OCc1ccccc1` (centres undefined) came in with a melting point of 122 to 123 °C.
The result for `CCCNC(=O)n1nc(Oc2c(Cl)cc(C(F)(F)F)cc2[N+](=O)[O-])cc1C` reads 111 to 113 °C; that for `NCc1ccc(-c2nc(-c3ccc(F)cc3)c(-c3ccncc3)[nH]2)cc1`, 214 to 215 °C; that for `O=C1CCC(c2ccc(F)cc2)c2ccccc2N1` (centres undefined), 209 to 212 °C.
Next, `Cc1c(Br)c2c(c3c1C(c1ccc(C(C)C)cc1)CO3)CCCC2` (centres undefined): 108 to 109 °C; `Cc1ccc(SCC2=NOCN2)cc1`: 85 °C; `CCOc1cc(-c2cc(C(F)F)n3ncc(-c4nc(-c5ccc(N)nc5)no4)c3n2)ccc1C(F)(F)F`: 250 °C.
Next, `Cc1c(C(=O)c2ccccc2)[nH]c(CC(=O)O)c1C(=O)O`: 250 to 253 °C.
On to `COc1ccc(C(=NO)c2ccccc2F)c(O)c1C`, for which the melting point was 167 to 169 °C.
The result for `CC#CCOc1cc(Oc2cccc(C(C)=O)c2)ncn1` reads 94 °C; that for `COC(=O)c1cc(Cl)c(OC)c(Cl)c1N`, 72 to 73 °C; that for `CNC(=O)NS(=O)(=O)c1ccccc1C=CC(F)(F)F`, 190 to 192 °C.
The result for `N#CC(C(=O)NCc1ccccc1Cl)C(=O)c1nn(-c2ccccc2)c2c1CSc1ccccc1-2` (centres undefined) reads 228 to 230 °C; that for `CC(C)(C)c1ccc([Si](C)(C)COc2cc(C(C)(C)C)c(O)c(C(C)(C)C)c2)cc1`, 114 to 115 °C; that for `Cc1c(-c2ccc(Cl)cc2)nc2ccc(C(=O)NC(Cc3ccc(OCc4ccccc4)cc3)C(=O)O)cn12` (centres undefined), 244 to 245 °C.
The result for `CCC1=NN=C(CC)NN1` reads 118 to 120 °C; that for `CCS(=O)(=O)N(C(C)=O)c1cc(-c2ncnc(C(F)F)c2Cl)c(F)cc1C#N`, 123 to 124 °C.
The compound `CCN(C(=O)CCCCc1nnnn1C1CCCCC1)C1CCCCC1` showed a melting point of 92 to 95 °C.
Next, `CNc1cc(Oc2ccc3c(C(=O)Nc4ccc(N5CCOCC5)c(C(F)(F)F)c4)cccc3c2)ncn1`: 156 to 157 °C; `OCC1CCc2cc(OCc3ccccc3)ccc2O1` (racemic): 80 to 82 °C; `CC(=O)OC1Cc2ccc(N)cc2C1` (centres undefined): 237 to 239 °C.
Next, `Cc1c(-c2ncc(Cl)cc2F)nn(C)c1C(=O)O`: 194 to 196 °C; `O=Cc1ccc(-c2cnc3cnc(-c4ccc(O)cc4)nc3c2)cc1`: greater than 268 °C.
The result for `CCOC(=O)c1cc2c(s1)CCC2=O` reads 54 to 55 °C; that for `C#CCOc1ccc2c(c1)c(-c1ccc(C(C)C)cc1)nc(=O)n2Cc1cccnc1O`, 121 to 123 °C; that for `COC(=O)c1ccc(O)c([C@H](CCN(C(C)C)C(C)C)c2ccccc2)c1`, 102 °C.
As to `CN(C)Cc1cccc(-c2csc(N=C(N)N)n2)n1`, the melting point lay within 160 to 162 °C.
The result for `CCOC(=O)CCc1c[nH]c2cnc(-n3cncn3)cc12` reads 129 to 131 °C; that for `CC(=O)c1ccc2c(c1)C(NC(=NC#N)Nc1ccccc1)C(O)C(C)(C)O2` (centres undefined), 182 to 184 °C.
The result for `CCCCc1c[nH]c2ccc(CO)cc2c1=O` reads 260 °C.
In turn, `Fc1ccc(Cn2c(NC3CCN(CCOc4nc5ccccc5s4)CC3)nc3ccccc32)cc1` yielded a melting point of 147 °C.
On to `O=C(Nc1cc2c(s1)-c1ccccc1OC2C1=CCCC=C1)C(F)(F)F` (centres undefined), for which the melting point lay within 174 to 176 °C.
The result for `COc1cccc(CC(=O)O)c1OCCCc1cn(-c2ncc(C(F)(F)F)cc2Cl)nc1C(C)C` reads 96 to 97 °C.
Next, `CC(CO)NC(=O)CCCCC1CCSS1` (centres undefined): 52 to 56 °C; `Nc1ccc(Nc2c(NCc3ccccc3)cc(C(=O)O)cc2S(N)(=O)=O)cc1`: 244 °C; `COC(=O)Nc1ccc(C(=O)OC)nc1`: 211 to 213 °C.
`O=c1n(C(c2ccccc2)(c2ccccc2)c2ccccc2)nc2ccc(Cl)nn12` gave a melting point of 246 to 247 °C.
For `O=C(O)Cc1cn(-c2ccccc2)nc1-c1ccccc1`, the melting point is 120 to 121 °C.
The result for `Cc1cc(Cn2nnn(-c3ccc(C(F)(F)F)cc3)c2=O)ccc1N` reads 210 to 211 °C.
Next, `COc1cc(-c2ncnc(C(F)F)c2Cl)c(F)cc1Cl`: 118 to 119 °C.
Compound `CCOC(=O)C(C#N)c1cn(C(=O)OCC)c2ccc(OC)cc12` (centres undefined) registered a melting point of 81 to 83 °C.
The result for `O=c1cc(-c2ccc(OCc3ccccc3)c(OCc3ccccc3)c2)oc2cc(OCC3CO3)ccc12` (centres undefined) reads 168 to 170 °C; that for `CC[C@H](C)C(OCc1ccccc1)[C@H]1[C@H]([N+](=O)[O-])[C@H](c2ccccc2)N[C@@H]1C(=O)NCCC(=O)O` (some centres undefined), 140 to 141 °C; that for `Cc1nc2cccc([N+](=O)[O-])c2s1`, 120 to 121 °C.
Next, `Cc1ccc(C2=C(C#N)C(c3cccc4nonc34)c3c[nH]nc3N2)s1` (centres undefined): 192 °C; `Cc1c(CC(=O)N[C@@H](CO)C(=O)O)cc(-c2ccc(S(C)(=O)=O)cc2)n1-c1ccc(F)cc1`: 120 °C; `O=c1cc(-c2ccc(O)cc2[N+](=O)[O-])oc2ccccc12`: 277 to 279 °C.
The result for `CCOC(=O)c1cn(C2CC2)c2c(F)c(F)c(F)c(F)c2c1=O` reads 170 to 171 °C; that for `COc1ccccc1C(CO)c1c[nH]c2c(=O)[nH]c(N)nc12` (centres undefined), 262 to 265 °C; that for `O=c1[nH]c2ccc(F)cc2n2ccnc12`, greater than 300 °C.
In turn, `COc1ccc(C(=O)O)c(C)c1OC` showed a melting point of 179 to 180 °C.
Consider `COc1ccc(O)c(OC)c1-c1ccc(C[C@H](NC(=O)c2c(Cl)cccc2Cl)C(=O)O)cc1`, for which the melting point lay in the range of 164 to 165 °C.
The result for `O=C(O)c1cccc(CC2COc3ccc(OCc4ccc5ccccc5n4)cc3C2O)c1` (centres undefined) reads 193 to 195 °C.
Next, `CNC(=O)N(C)C1c2ccccc2Oc2ccccc21`: 173 to 174 °C; `O=C1N(Cc2ccc(C(F)(F)F)o2)c2cc3c(cc2C12COc1cc4c(cc12)OCCO4)OCCO3` (centres undefined): 176 to 178 °C; `CS(=O)c1ccc(-c2ccc(-c3ccc(F)cc3)s2)s1` (centres undefined): 153 to 157 °C.
Next, `COC(=O)c1ccc(=O)n(CCNC(=O)c2cc(Cl)ccc2OC)c1`: 149 to 150 °C.
In the case of `Sc1nsnc1-c1c(Cl)cccc1Cl`, the melting point was 91 to 94 °C.
The result for `COc1cccc2c1CC(=O)c1cc(C(C)C(N)=O)ccc1S2` (centres undefined) reads 178 to 180 °C.
The result for `COc1ccc(S(=O)(=O)N2CCc3cccc(-c4ccccc4)c32)cc1` reads 166 to 168 °C; that for `COc1cccc(Oc2ncccc2C#N)c1`, 66 to 68 °C; that for `CCCn1nc(C(C)C)c(C(N)=O)c1Cc1ccc(-c2ccccc2S(=O)(=O)NC(=O)c2ccccc2)cc1`, 197 to 200 °C.
Next, `COc1cc(O)c(C(=O)C=Cc2ccc3c(c2)OCO3)c(OC)c1`: 162 °C; `CCOC(=O)c1ccc(Nc2ccc([N+](=O)[O-])cc2[N+](=O)[O-])cc1`: 99 to 102 °C.
As to `CCCN1CC=C(c2c(C)[nH]c3cc(OC)ccc23)CC1`, the melting point fell in the range of 90 to 95 °C.
Next, `Brc1cn2c(Br)cnc2c(Br)n1`: 161 °C; `CC(=O)c1c(C)c(NC(=O)CC(C)(C)C)c(C)c2c1S(=O)(=O)CC2c1ccc(C(C)C)cc1` (centres undefined): 184 to 186 °C; `O=C1OCCN1c1cccc(CCBr)c1`: 73 to 75 °C.
As to `CC(=O)C1CCC2C3CCC4CC(O)C(Cl)CC4(C)C3C(=O)CC12C` (centres undefined), the melting point lay within 185 to 189 °C.
